The source of these data is US20240010680A1, “PEPTIDE DISINFECTANT FOR PREVENTING CORONAVIRUSES” (Xiamen University, priority 2021, published 2024).

pKd: −log10 of the molar value. Where no end group is shown, it is not given here.

Sequence of hACE2 (Q9BYF1 18-805): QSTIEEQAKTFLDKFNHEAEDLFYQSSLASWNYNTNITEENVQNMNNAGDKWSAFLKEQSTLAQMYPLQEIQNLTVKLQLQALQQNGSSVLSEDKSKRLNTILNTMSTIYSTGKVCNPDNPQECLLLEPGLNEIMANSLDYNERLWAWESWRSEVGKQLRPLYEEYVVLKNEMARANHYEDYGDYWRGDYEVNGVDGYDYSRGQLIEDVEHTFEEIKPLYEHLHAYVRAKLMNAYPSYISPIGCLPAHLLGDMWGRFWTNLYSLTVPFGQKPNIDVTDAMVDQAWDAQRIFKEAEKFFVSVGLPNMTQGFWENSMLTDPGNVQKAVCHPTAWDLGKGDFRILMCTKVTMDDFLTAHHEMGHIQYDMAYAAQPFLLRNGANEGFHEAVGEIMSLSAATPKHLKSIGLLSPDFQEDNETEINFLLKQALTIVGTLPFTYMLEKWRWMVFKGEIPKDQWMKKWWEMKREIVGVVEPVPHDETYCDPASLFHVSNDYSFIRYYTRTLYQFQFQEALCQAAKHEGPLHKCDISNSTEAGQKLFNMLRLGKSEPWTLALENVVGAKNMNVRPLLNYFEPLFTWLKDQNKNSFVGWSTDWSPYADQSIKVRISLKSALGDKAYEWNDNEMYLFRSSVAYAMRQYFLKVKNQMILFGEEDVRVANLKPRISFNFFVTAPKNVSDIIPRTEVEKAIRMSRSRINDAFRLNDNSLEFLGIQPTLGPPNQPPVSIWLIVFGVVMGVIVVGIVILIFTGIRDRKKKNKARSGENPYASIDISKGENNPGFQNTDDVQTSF

This experiment addresses hACE2 (Homo sapiens, UniProt Q9BYF1). Nature of the experiment: Biacore T200 molecular binding (affinity analysis) of peptides on a CM5-hACE2 chip. The text has this: Embodiment 1: Testing a Binding Capacity Between Peptide1 & Peptide2 and Derivatives Thereof and hACE2 Based on a Biacore Molecular Binding System (e.g., GE Biacore T200)
Apparatus: GE Biacore T200.
Materials and reagents: Series S Sensor Chip CM5 (GE Life100530), hACE2 purified protein, Peptide1 & Peptide2 and their derivatives (See Table 1), Amine Coupling Kit (GELife100050, Phosphate-buffered saline (PBS), glycine-hydrochloric acid buffer solution (pH 2.5)).
(1) Preparing a Capture Surface and a Binding Experiment
Materials: 1-(3-Dimethylaminopropyl)-3-ethylcarbodiimide hydrochloride (EDC), N-Hydroxysuccinimide (NHS), ethanolamine (an amine coupling kit), PBS, hACE2, Series S Sensor Chip CM5.
Specific Steps: • a. The GE Biacore T200 is started, the Series S Sensor Chip CM5 is embedded into the GE Biacore T200, the PBS is degassed to obtain a degassed PBS, and the degassed PBS is used throughout the experiment; • b. The NHS, the EDC, the ethanolamine, and the hACE2 (1 mg/mL) are placed on a feeding plate of the GE Biacore T200 according to volumes indicated by the GE Biacore T200 using Eppendorf (EP) tubes in sufficient quantities; • c. A sample is injected at a flow rate of 5 μL/min, an activation of the Series S Sensor Chip CM5, amine coupling of the hACE2, and saturating an activated carboxyl group that is uncoupled with the hACE2 using the ethanolamine are sequentially performed to obtain an RUs value of the hACE2, and the RUs value is 14826.0; • d. A mobile solution (the degassed PBS) is closed, a command window is closed, and a report is served to obtain a CM5-hACE2 chip;
(2) Affinity analysis of peptides with hACE from Table 1
Materials: the PBS, the CM5-hACE2 chip, the peptides in the Table 1, and the glycine-hydrochloric acid buffer solution (pH 2.5).
Specific Steps: • a. Preparing different dilutions as samples for testing: the peptides in Table 1 to be tested at a concentration of 3 mmol/L (mM) are dissolved and sequentially diluted into different dilutions of 100 μmol/L (μM), 60 μM, 30 μM, 10 μM, 3 μM, 1 μM, 0.3 μM, and 0 using the PBS to obtain the samples. Each of the different dilutions is ensured to have a volume of no less than 400 μL and separately packaged on EP tubes. The samples are placed on a test plate of the GE Biacore T200, and the test plate is stuck in a test slot; • b. […]
In general terms: Surface plasmon resonance follows binding to a sensor surface in real time, without labels.
The term pKd denotes −log10 of the Kd, conventionally taken in molar units. Regarding YKYRYL [Peptide1, YKYRYL], the pKd was 4.30.
Regarding YRYKYL [Peptide11, YRYKYL], the pKd was 4.22.
YSYINK [Peptide2, YSYINK] gave a pKd of 4.02.
In turn, YTYINK [Peptide22, YTYINK] showed a pKd of 4.23. Compared with the last substance, the pKd is 0.21 log units higher.
